Measured values taken from article PMC7158045 (BMC Plant Biology, 2020).
Where two headings read alike, the source gives them in different places.

What was measured:
Test in all cases: biochemical
ZmDRIK1-R187-P492 = molecular target: T1, ZmDRIK1-R187-P492 (Zea mays, UniProt C0P4K9)
T1 construct: kinase domain, R187-P492
T1 sequence (C0P4K9 1-514): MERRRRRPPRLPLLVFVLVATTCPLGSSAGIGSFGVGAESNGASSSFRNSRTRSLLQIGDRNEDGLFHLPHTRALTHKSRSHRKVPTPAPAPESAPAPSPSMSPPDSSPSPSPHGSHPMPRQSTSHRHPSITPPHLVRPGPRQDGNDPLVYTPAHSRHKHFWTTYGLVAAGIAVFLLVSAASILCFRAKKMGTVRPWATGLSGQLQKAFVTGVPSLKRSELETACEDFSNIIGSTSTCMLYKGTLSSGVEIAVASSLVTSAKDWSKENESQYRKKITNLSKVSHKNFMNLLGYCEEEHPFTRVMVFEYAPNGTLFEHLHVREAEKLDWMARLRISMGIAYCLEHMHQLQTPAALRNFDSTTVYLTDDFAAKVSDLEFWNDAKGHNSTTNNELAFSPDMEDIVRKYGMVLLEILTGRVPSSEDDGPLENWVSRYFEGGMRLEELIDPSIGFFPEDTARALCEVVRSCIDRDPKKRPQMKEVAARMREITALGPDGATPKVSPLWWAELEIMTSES

[1] = molecular target: T2, ZmDRIK1 (DROUGHT RESPONSIVE INACTIVE KINASE 1), kinase domain (Zea mays, UniProt C0P4K9); conditions: read-out: dTm B, sheet ZmDRIK1-R187-S514;; DSF, Boltzmann fit, 0.1% DMSO
T2 construct: gene ZEAMMB73_Zm00001d028770; ZmDRIK1-KD R187-S514 (kinase domain)
T2 sequence (C0P4K9 187-514): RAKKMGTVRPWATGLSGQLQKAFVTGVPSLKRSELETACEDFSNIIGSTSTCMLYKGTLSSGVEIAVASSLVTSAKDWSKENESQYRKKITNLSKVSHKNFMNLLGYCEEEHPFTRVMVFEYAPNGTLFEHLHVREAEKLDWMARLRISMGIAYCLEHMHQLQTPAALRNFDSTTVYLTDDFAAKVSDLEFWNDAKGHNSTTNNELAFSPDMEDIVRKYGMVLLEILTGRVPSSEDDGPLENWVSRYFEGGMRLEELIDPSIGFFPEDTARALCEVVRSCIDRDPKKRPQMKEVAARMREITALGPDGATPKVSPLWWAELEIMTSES

ZmDRIK1-K217-P492 = molecular target: T3, ZmDRIK1-K217-P492 (Zea mays, UniProt C0P4K9)
T3 construct: kinase domain, K217-P492
T3 sequence (C0P4K9 1-514): T1 sequence (C0P4K9 1-514)

ZmDRIK1-K217-S514 = molecular target: T4, ZmDRIK1-K217-S514 (Zea mays, UniProt C0P4K9)
T4 construct: kinase domain, K217-S514
T4 sequence (C0P4K9 1-514): T1 sequence (C0P4K9 1-514)

[2] = read-out: dTm B, DSF, Boltzmann fit, 0.1% DMSO
[3] = read-out: dTm B, sheet ZmDRIK1-K217-P492;, DSF, Boltzmann fit, 0.1% DMSO
[4] = read-out: dTm B, sheet ZmDRIK1-K217-S514;, DSF, Boltzmann fit, 0.1% DMSO

Structure (SMILES) | ΔTm at 10 µM (ZmDRIK1-R187-P492; [2]) | ΔTm at 10 µM [1] | ΔTm at 10 µM (ZmDRIK1-K217-P492; [3]) | ΔTm at 10 µM (ZmDRIK1-K217-S514; [4]) | ΔTm at 10 µM (ZmDRIK1-R187-P492; read-out: dTm B) | ΔTm at 10 µM (ZmDRIK1-K217-P492; read-out: dTm B) | ΔTm at 10 µM (ZmDRIK1-K217-S514; read-out: dTm B)
Nc1ncnc2c1c(-c1cccc(OCc3ccccc3)c1)cn2C1CC(CN2CCCC2)C1 (stereo in doubt) [NVP-ADW742] | -0.18 °C | -1.07 °C | -0.671 °C | -0.731 °C | – | – | –
Cn1cnc(N)c2ncnc1-2 [3-Methyladenine] | -0.274 °C | -0.528 °C | -0.621 °C | -0.375 °C | – | – | –
CCc1ccc(C=C2SC(=S)NC2=O)cc1 [10058-F4] | -0.741 °C | -1.27 °C | -1.02 °C | -0.172 °C | – | – | –
Cc1nc(NC(=O)N2CCC[C@H]2C(N)=O)sc1-c1csc(C(C)(C)C)n1 [A66] | -0.295 °C | -0.746 °C | -0.988 °C | -0.323 °C | – | – | –
Cc1[nH]nc2ccc(-c3cncc(OC[C@@H](N)Cc4ccccc4)c3)cc12 [A-674563] | -0.417 °C | -0.493 °C | -0.898 °C | -0.328 °C | – | – | –
N#Cc1c(O)c2c(-c3ccc(-c4ccccc4O)cc3)csc2[nH]c1=O [A-769662] | -0.292 °C | -1.11 °C | -1.24 °C | -0.453 °C | – | – | –
Cc1c(NC(=O)OC[C@@H]2COCCN2)cn2ncnc(Nc3ccc4c(cnn4Cc4cccc(F)c4)c3)c12 [AC480 (BMS-599626)] | -0.278 °C | -0.997 °C | -0.766 °C | -0.265 °C | – | – | –
CCN1CCN(Cc2ccc(-c3cc4c(N[C@H](C)c5ccccc5)ncnc4[nH]3)cc2)CC1 [AEE788 (NVP-AEE788)] | -0.159 °C | -0.878 °C | -0.494 °C | -0.297 °C | – | – | –
N#CC(C#N)=Cc1ccc(O)c(O)c1 [AG-18] | -0.457 °C | -1.16 °C | -0.987 °C | -0.556 °C | – | – | –
N#C/C(=C\c1ccc(O)c(O)c1)C(=O)NCc1ccccc1 [AG-490 (Tyrphostin B42)] | -0.394 °C | -1.15 °C | -0.722 °C | -0.507 °C | – | – | –
CC(C)(C)c1cc(C=C(C#N)C#N)cc(Br)c1O [AG-1024] | -0.615 °C | -0.562 °C | -1.09 °C | -0.233 °C | – | – | –
COc1cc2ncnc(Nc3cccc(Cl)c3)c2cc1OC [AG-1478 (Tyrphostin AG-1478)] | -0.424 °C | -0.676 °C | -0.243 °C | -0.388 °C | – | – | –
COc1ccc(CNC(=O)Nc2ncc([N+](=O)[O-])s2)cc1 [AR-A014418] | -0.199 °C | -1.03 °C | -0.984 °C | -0.49 °C | – | – | –
O=C1NC(=O)/C(=C/c2ccc(-c3ccc(F)cc3O)o2)S1 [AS-252424] | 0.884 °C | 0.389 °C | 1.37 °C | 1.39 °C | – | – | –
O=C1NC(=O)/C(=C/c2ccc3c(c2)OC(F)(F)O3)S1 [AS-604850] | -0.284 °C | -0.905 °C | -0.999 °C | -0.526 °C | – | – | –
Cc1cc(Nc2nc(N[C@@H](C)c3ccc(F)cc3)c(C#N)cc2F)n[nH]1 [AZ 960] | -0.311 °C | -0.939 °C | -0.533 °C | -0.27 °C | – | – | –
COc1ccc(-c2ccc3ncc4c(c3c2)n(-c2ccc(N3CCNCC3)c(C(F)(F)F)c2)c(=O)n4C)cn1 [BGT226 (NVP-BGT226)] | -0.244 °C | – | -0.378 °C | 0.245 °C | – | – | –
CC(C)(C)c1nc(-c2cccc(NS(=O)(=O)c3c(F)cccc3F)c2F)c(-c2ccnc(N)n2)s1 [Dabrafenib (GSK2118436)] | -0.533 °C | – | -1.14 °C | -0.366 °C | – | – | –
COc1cc2c(Oc3ccc(NC(=O)C4(C(=O)Nc5ccc(F)cc5)CC4)cc3F)ccnc2cc1OCCCN1CCOCC1 [Foretinib (GSK1363089)] | 5.58 °C | – | -14.9 °C | -14.7 °C | – | – | –
O=c1c(-c2ccc(O)cc2)coc2cc(O)cc(O)c12 [Genistein] | -17.5 °C | – | -18.8 °C | -13.4 °C | – | – | –
COc1cc2nccc(Oc3ccc(NC(=O)Nc4ccc(F)cc4F)c(F)c3)c2cc1OC [Ki8751] | -0.397 °C | – | -0.321 °C | -0.589 °C | – | – | –
COc1ncccc1-c1cnn2ccc(N3CCN(C(=O)OC(C)C)CC3)nc12 [LP-935509 (AAK1)] | – | – | – | – | -0.447 °C | -0.638 °C | -0.536 °C
CS(=O)(=O)CCNCc1ccc(-c2ccc3ncnc(Nc4ccc(OCc5cccc(F)c5)c(Cl)c4)c3c2)o1 [Lapatinib (GW-572016) Ditosylate] | 1.26 °C | – | -0.876 °C | -16 °C | – | – | –
O=C(NOCC1CC1)c1ccc(F)c(F)c1Nc1ccc(I)cc1Cl [PD184352 (CI-1040)] | -0.348 °C | – | -1.2 °C | 0.792 °C | – | – | –
Cn1c(Nc2ccc(C(F)(F)F)cc2)nc2cc(Oc3ccnc(-c4ncc(C(F)(F)F)[nH]4)c3)ccc21 [RAF265 (CHIR-265)] | -2.04 °C | – | 0.39 °C | 10.1 °C | – | – | –
Nc1ccc(-c2ccc3ncc4ccc(=O)n(-c5cccc(C(F)(F)F)c5)c4c3c2)cn1 [Torin 2] | -0.3 °C | – | -0.531 °C | -0.322 °C | – | – | –

The next lines start with results.

ΔTm at 10 µM (ZmDRIK1-R187-P492; [2]) | ΔTm at 10 µM [1] | ΔTm at 10 µM (ZmDRIK1-K217-P492; [3]) | ΔTm at 10 µM (ZmDRIK1-K217-S514; [4]) | Structure (SMILES) | ΔTm at 10 µM (ZmDRIK1-R187-P492; read-out: dTm B) | ΔTm at 10 µM (ZmDRIK1-K217-P492; read-out: dTm B) | ΔTm at 10 µM (ZmDRIK1-K217-S514; read-out: dTm B)
-0.47 °C | -0.534 °C | -0.834 °C | -0.62 °C | O=C1NC(=O)C(=Cc2ccc(-c3ccc(F)cc3)o2)S1 (stereo in doubt) [CAY10505] | – | – | –
-0.312 °C | -0.675 °C | -0.94 °C | -0.329 °C | COc1ccc2c(Oc3ccc(NC(=O)c4c(C)n(CC(C)(C)O)n(-c5ccccc5)c4=O)nc3)ccnc2c1 [AMG-458] | – | – | –
-0.572 °C | -6.12 °C | -3.86 °C | -2.33 °C | Cc1csc(-c2nnc(Nc3ccc(Oc4ncccc4-c4ccnc(N)n4)cc3)c3ccccc23)c1 [AMG-900] | – | – | –
-5.11 °C | -7.98 °C | -1.48 °C | -1.18 °C | C=CC(=O)Nc1ccc2ncnc(Nc3ccc(OCc4cccc(F)c4)c(Cl)c3)c2c1 [AST-1306] | – | – | –
0.0148 °C | -0.866 °C | 0.0166 °C | -0.106 °C | O=C(NC1CCNCC1)c1n[nH]cc1NC(=O)c1c(Cl)cccc1Cl [AT7519] | – | – | –
-0.25 °C | -0.971 °C | -0.759 °C | 0.339 °C | Clc1ccc(C2(c3ccc(-c4cn[nH]c4)cc3)CCNCC2)cc1 [AT7867] | – | – | –
-0.23 °C | -0.914 °C | -0.742 °C | -0.536 °C | O=C(Nc1c[nH]nc1-c1nc2ccc(CN3CCOCC3)cc2[nH]1)NC1CC1 [AT9283] | – | – | –
1.32 °C | -0.365 °C | 0.368 °C | 0.698 °C | C=CC(=O)Nc1cccc(Nc2nc(Nc3ccc(OCCOC)cc3)ncc2F)c1 [AVL-292] | – | – | –
-0.0341 °C | -0.953 °C | -0.913 °C | -0.493 °C | C[C@@H]1COCCN1c1cc(C2(S(C)(=O)=O)CC2)nc(-c2cccc3[nH]ccc23)n1 [AZ20] | – | – | –
-0.506 °C | -1.22 °C | -0.787 °C | -0.298 °C | N#Cc1ccc2[nH]c(O)c(-c3ccc(CN4CCOCC4)cn3)c2c1 [AZD1080] | – | – | –
-0.181 °C | -0.564 °C | -0.752 °C | -0.249 °C | N[C@@H]1CCCN(c2c(/C=C3\SC(=O)NC3=O)cccc2-c2ccccc2)C1 [AZD1208] | – | – | –
-0.161 °C | -0.906 °C | -0.856 °C | -0.215 °C | Cc1cc(Nc2nc(N[C@@H](C)c3ncc(F)cn3)ncc2Cl)[nH]n1 [AZD1480] | – | – | –
-0.208 °C | -0.732 °C | -0.984 °C | -0.171 °C | CNC(=O)c1cccc(-c2ccc3c(N4CCOC[C@@H]4C)nc(N4CCOC[C@@H]4C)nc3n2)c1 [AZD2014] | – | – | –
0.74 °C | -0.307 °C | -0.184 °C | 0.133 °C | COc1cc(N2CCC(N)CC2)ccc1Nc1ncc(Cl)c(-c2c[nH]c3ccccc23)n1 [AZD3463] | – | – | –
